This note sets out measurements from patent US5514705A, “Epidioxymanadic acids A and B” (PharmaMar, S.A., priority 1994, dated 1996).

What all share (assay type): cell-based
For one assay, the system named is P388 (leukemia). As to the kind of experiment: Cytotoxicity against P388 cell line in culture. Conditions: Mus musculus; P388 leukemia cells in culture.
Assay [1] has as its system A549 (human lung carcinoma). As to the kind of experiment: Cytotoxicity against A549 cell line in culture. Conditions: A549 human lung carcinoma cells in culture.
Assay [2] has as its system HT29 (human colon carcinoma). Briefly: Cytotoxicity against HT29 cell line in culture. Conditions: HT-29; HT29 human colon carcinoma cells in culture.
A further assay concerns MEL-28 (human melanoma). Briefly: Cytotoxicity against MEL-28 cell line in culture. Conditions: SK-MEL-28; MEL-28 human melanoma cells in culture.

Molecules are shown by their SMILES. ≈ marks a conversion by molar mass, not a printed value.

By IC50 is commonly meant the point on the concentration scale where inhibition reaches its midpoint. Regarding `C/C=C(C)/C=C/CCC[C@@]1(OC)C[C@H](C)[C@H](CC(=O)O)OO1` [Epidioxymanadic A, epidioxymanadic acid A], the IC50 in the assay on P388 (leukemia) amounted to 0.5 µg/mL (≈ 1.6 µM); in assay [1], 1 µg/mL (≈ 3.2 µM); in assay [2], 2 µg/mL (≈ 6.4 µM); in the assay with MEL-28 (human melanoma) it was 5 µg/mL (≈ 16 µM).
`CC/C=C(C)/C=C/CCC[C@@]1(OC)C[C@H](C)[C@H](CC(=O)O)OO1` [Epidioxymanadic B, epidioxymanadic acid B]: the IC50 was found to be 0.5 µg/mL (≈ 1.53 µM) with P388 (leukemia), 1 µg/mL (≈ 3.06 µM) in assay [1], 2 µg/mL (≈ 6.13 µM) in assay [2] and 2.5 µg/mL (≈ 7.66 µM) with MEL-28 (human melanoma).
